Article PMC3423427, “Design and Synthesis of Potent N-Acylethanolamine-hydrolyzing Acid Amidase (NAAA) Inhibitor as Anti-Inflammatory Compounds” (PLoS ONE, 2012)
Read-outs that look alike come from different tables or passages of the source.

Experiments:
NAAA [1] = biological target: T1, NAAA (Rattus norvegicus, UniProt Q5KTC7)
T1 sequence (Q5KTC7 34-362): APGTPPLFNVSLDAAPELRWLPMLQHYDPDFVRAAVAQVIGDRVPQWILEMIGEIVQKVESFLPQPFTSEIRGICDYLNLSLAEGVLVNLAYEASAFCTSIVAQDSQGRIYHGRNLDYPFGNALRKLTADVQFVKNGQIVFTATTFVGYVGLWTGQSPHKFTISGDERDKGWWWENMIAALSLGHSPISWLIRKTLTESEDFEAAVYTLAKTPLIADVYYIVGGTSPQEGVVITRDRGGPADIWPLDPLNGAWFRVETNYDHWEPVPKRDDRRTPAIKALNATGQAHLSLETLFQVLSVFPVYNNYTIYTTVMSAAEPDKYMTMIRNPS
Method: HEK293-rNAAA or HEK293-rFAAH cells were harvested, washed with PBS, sonicated in 20 mM Tris-HCl (pH 7.5) containing 0.32 M sucrose, and centrifuged at 800 × g for 15 min at 4°C. The supernatants were collected and protein concentrations were measured by BCA protein assay kit (Pierce, Shanghai, China). NAAA activity was measured by incubating 30 µg recombinant rNAAA protein with testing compound at 37°C for 30 min in 0.2 mL phosphate buffer (50 mM, pH 5.0) containing 0.1% Triton X-100, 3 mM DTT, and 25 µM heptadecenoylethanolamide as substrate. […] The reactions were terminated by adding 0.2 mL methanol containing 1 nmol heptadecanoic acid and analyzed in LC/MS.

[2] = 24 hr
Method: To evaluate the biological and chemical stability of compound 16, we determined the degradation products of compound 16 in different chemical environments, as well as in rat plasma. First, chemical hydrolysis was evaluated at various pHs, i.e. pH 1.0 and pH 13.0. The hydrolytic product, biphenylpropanoic acid, if any, was detected by thin layer chromatography (TLC) after 24 hr incubation with 0.1 M HCl (pH 1.0) or […] (pH 13.0). […] Second, to test whether compound 16 was sensitive to thermal challenge, we placed compound 16 in 80°C incubator for 24 hr.

NAAA [3] = biological target: T1, NAAA; test: Rapid dilution NAAA assay; format: biochemical; design: made in house; host or cells: HEK293 cells stably overexpressing rat NAAA (HEK293-rNAAA), a gift from D. Piomelli; crude 800 x g supernatant of sonicated cells; conditions: pre-incubation 10-fold IC50, 100-fold dilution
Method: Rapid dilution assay was performed as previously described. Briefly, samples containing 100-fold concentrated rNAAA recombinant protein were pre-incubated with 10-fold the IC50-equivalent concentration of compound 16 or vehicle (1% DMSO) for 10 min at 37°C. Samples were then diluted 100-fold with assay buffer containing substrate to initiate reactions, and the time course of product formation was measured by LC/MS.

RAW264.7 cells = system: RAW264.7 cells
Method: (§1) HEK293 cells overexpressing rat NAAA (HEK293-rNAAA) and rat FAAH (HEK293-rFAAH) were kind gifts from Dr. Daniele Piomelli in University of California, Irvine. The stable-overexpressing cell lines were maintained in Dulbecco’s Modified Eagle Medium (DMEM, Hyclone, Beijing, China) supplemented with 10% FBS (Gibco®, Shanghai, China) containing 0.3 mg/mL G418. Mouse macrophage cells RAW264.7 and Human Embryonic Kidney cell HEK293 cells were purchased from American Type Culture Collection (ATCC, Beijing, China) and maintained in DMEM supplemented with 10% FBS in humidified 5% CO2 atmosphere at 37°C. RAW264.7 cells were plated and cultured overnight until 80% confluence and then incubated with a series of compound 16 of different concentrations for 30 min before challenged by LPS.
The column temperature was set at 40°C.

iNOS = conditions: RAW264.7, 0.5 µg/ml LPS
Method: as §1
(§2) Total RNA was extracted from RAW264.7 cells with TRIzol (Invitrogen) and quantified by spectrophotometer (Beckman coulter, Shanghai, China). cDNA was synthesized from 1 µg of total RNA by using ReverTra Ace qPCR RT Kit (TOYOBO, Shanghai, China) following the manufacturer’s instructions. Real-time quantitative PCR was performed in a 7300 Real Time PCR System (Applied Biosystems, Shanghai, China) and RNA levels were normalized using glyceraldehyde-3-phosphate dehydrogenase (GAPDH) as an internal standard.

IL-6 = conditions: RAW264.7, 0.5 µg/ml LPS
Method: as §1, §2

NAAA [4] = biological target: T1, NAAA; test: Dialysis NAAA assay; format: biochemical; design: made in house; host or cells: HEK293 cells stably overexpressing rat NAAA (HEK293-rNAAA), a gift from D. Piomelli; crude 800 x g supernatant of sonicated cells; conditions: 8 hr dialysis
Method: Dialysis assay was performed using Slide-A-Lyzer Dialysis Cassettes (Pierce, Shanghai, China). Briefly, 2 mg NAAA protein was incubated with compound 16 or dimethyl sulfoxide (DMSO) in 4 mL Tris-HCl buffer (50 mM, pH 5.0) for 10 minutes at 37°C. Mixed reaction solution was loaded onto a dialysis cartridge using a syringe and incubated in Tris-HCl buffer (50 mM, pH 5.0) at 4°C for 8 h. The samples were removed from Dialysis Cassettes by syringes for NAAA enzymatic assay.

[5] = 80% rat plasma, 37°C
Method: In terms of the biological stability test, rat plasma was usually chosen as reference in vitro model for drug stability studies, [20], [21]. The hydrolysis of compound 16 was studied in 80% rat plasma at 37°C physiological condition.

NAAA [6] = biological target: T1, NAAA; test: NAAA activity in intact HEK293 cells overexpressing NAAA; format: cell-based; conditions: 10 µM, 8 hr
Method: as §1

rat NAAA = biological target: T2, rat NAAA (Rattus norvegicus, UniProt Q5KTC7); test: NAAA enzymatic assay (recombinant rNAAA protein, LC/MS); format: biochemical; conditions: IC50 ± S.E.M., triplicate; 25 µM heptadecenoylethanolamide, pH 5.0;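 further: reaction product measured by LC/MS using positive APCI ionization with MRM monitoring, quantified from chromatographic peak areas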
T2 construct: made in house; host or cells: HEK293 cells stably overexpressing rat NAAA (HEK293-rNAAA), a gift from D. Piomelli; crude 800 x g supernatant of sonicated cells
T2 sequence (Q5KTC7 34-362): T1 sequence (Q5KTC7 34-362)
Method: HEK293-rNAAA or HEK293-rFAAH cells were harvested, washed with PBS, sonicated in 20 mM Tris-HCl (pH 7.5) containing 0.32 M sucrose, and centrifuged at 800 × g for 15 min at 4°C. The supernatants were collected and protein concentrations were measured by BCA protein assay kit (Pierce, Shanghai, China). […] The reactions were terminated by adding 0.2 mL methanol containing 1 nmol heptadecanoic acid and analyzed in LC/MS.
We use an Agilent 1200-LC system coupled to a 3200Q TRAP-MS detector equipped with an ESI interface (Agilent Technologies, Shanghai, China). […] The column temperature was set at 40°C. […] Mass spectrometer (MS) detection was ionized by positive-ion atmospheric pressure chemical ionization mode (APCI^+) and monitored in MRM mode. […] Quantifications were calculated at chromatographic peak areas by using Analyst® version 1.4.1. software (Applied Biosystems).

SMILES: O=C(CCc1ccc(-c2ccccc2)cc1)N1CCCC1 [Compound 16, 1–(2–Biphenyl–4–yl)ethyl–carbonyl pyrrolidine]
- Vmax of NAAA activity (NAAA [1]; 5µM compound 16, […], n = 3): 5854 ± 511 pmol/min/mg
- mode of NAAA inhibition (NAAA [1]; rapid dilution, dialysis and kinetic analysis): reversible and competitive
- Km (NAAA [1]; read-out: Michaelis-Menten constant Km, 5µM compound 16, […]): 328 ± 98 µM
- Ki (NAAA [1]; read-out: dissociation constant Ki, calculated from Km (inhibitor) = Km (1+[I]/Ki)): 5.65 µM
- stability, 0.1M HCl ([2]; 0.1 M HCl (pH 1.0)): 100%
- hydrolytic product on TLC, acidic medium ([2]; 0.1 M HCl (pH 1.0), TLC EtOAc/PE 1:2): no detectable biphenylpropanoic acid
- hydrolytic product on TLC, basic medium ([2]; 0.1 M NaCl (pH 13.0) as printed, TLC EtOAc/PE 1:2): no detectable biphenylpropanoic acid
- stability, 80°C ([2]; 80°C incubator): 100%
- degradation products on TLC after thermal challenge ([2]; 80°C, TLC EtOAc/PE 1:2): no trace of biphenylpropanoic acid or other corresponding residuals
- stability, 0.1NaOH ([2]; basic medium (pH 13.0)): 100%
- NAAA activity after rapid dilution of inhibitor-NAAA complex (NAAA [3]): almost completely restored the NAAA activity
- cellular PEA levels, LPS+compound (RAW264.7 cells; RAW264.7, 0.5 µg/mL LPS, LPS alone 0.67±0.12): 1.41±0.17 pmol/mg protein
- cellular PEA levels, compound alone (RAW264.7 cells; RAW264.7, no LPS, vehicle 1.23±0.07): 1.30±0.23 pmol/mg protein
- LPS-induced iNOS mRNA expression (iNOS): reversed dose-dependently
- LPS-induced IL-6 mRNA expression (IL-6): reversed dose-dependently
- NAAA activity after dialysis of inhibitor-NAAA complex (NAAA [4]): almost completely restored the NAAA activity
- compound remaining, Rat Serum 8h [5]: 89%
- compound remaining, Rat Serum 8h ([5]; listed as compound 16): 89%
- compound remaining, Rat Serum 16h [5]: 64%
- compound remaining, Rat Serum 16h ([5]; listed as compound 16): 64%
- inhibition on NAAA activity in intact cells (NAAA [6]): more than 60%
- IC50 (rat NAAA): 2.12 ± 0.41 µM
